Results taken from patent publication US20250154201A1, “PEPTIDE BINDING TO MESOTHELIN, AND USE THEREOF” (KYUNGPOOK NATIONAL UNIVERSITY INDUSTRY-ACADEMIC COOPERATION …, priority 2022, published 2025).

Key:
mesothelin [1] = molecular target: T1, mesothelin (Homo sapiens, UniProt Q13421); assay: immunofluorescence binding to HEK-293T cells transiently transfected with mesothelin-GFP plasmid; type: cell-based; design: GFP; host or cells: HEK293T; details: 10 μM and 25 μM MSLN-pep, 25 μM Ctrl-pep; transfected and untransfected HEK-293T
T1 sequence (Q13421 with tags, fused parts or gaps): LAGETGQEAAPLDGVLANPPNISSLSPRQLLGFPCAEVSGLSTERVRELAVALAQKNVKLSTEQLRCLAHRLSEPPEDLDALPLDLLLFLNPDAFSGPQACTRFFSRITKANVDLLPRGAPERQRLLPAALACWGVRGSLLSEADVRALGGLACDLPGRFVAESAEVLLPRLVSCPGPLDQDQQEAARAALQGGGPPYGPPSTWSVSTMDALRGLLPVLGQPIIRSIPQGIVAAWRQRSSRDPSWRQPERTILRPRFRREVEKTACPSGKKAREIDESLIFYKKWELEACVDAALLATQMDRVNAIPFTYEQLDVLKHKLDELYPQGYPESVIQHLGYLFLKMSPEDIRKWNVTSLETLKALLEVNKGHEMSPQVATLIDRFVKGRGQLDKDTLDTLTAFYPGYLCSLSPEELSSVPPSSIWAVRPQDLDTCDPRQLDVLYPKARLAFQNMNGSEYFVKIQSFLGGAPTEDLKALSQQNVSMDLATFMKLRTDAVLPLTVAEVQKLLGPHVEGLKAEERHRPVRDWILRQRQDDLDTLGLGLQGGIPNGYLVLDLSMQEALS
Experimental: HEK293T cells were transiently transfected using Lipofectamine 3000 (Invitrogen) in 6-well plates according to the manufacturer's protocol. Prior to transfection, 2×10^5 cells were cultured in 6-well plates for 24 hours. To transfect one well, 7.5 μl of Lipofectamine 3000 reagent was diluted in 250 μl of Opti-MEM (Invitrogen) reagent, followed by a reaction at room temperature for 5 minutes. 5 μg of mesothelin-expressing plasmid pCMV6-AC-GFP vector DNA was diluted in 250 μl of Opti-MEM (Invitrogen) reagent, followed by a reaction at room temperature for 5 minutes. The mixture of two solutions were then mixed and reacted at room temperature for 10 minutes (a total of 500 μl per well). The old medium of the cells was immediately removed, and a 500 μl of DNA-transfection reagent-mixture was added to the cells before transfer to the incubator. After 24 hours of culture, the medium was again replaced with a pre-warmed growth medium containing serum. Culture was performed for 48 hours, and the newly inserted protein was expressed in the cells.
Taken together, it was found via immunofluorescence analysis that MSLN-pep specifically binds to mesothelin.

[2] = test system: AsPC-1 cells expressing mesothelin; assay: binding to AsPC-1 cells after mesothelin siRNA (confocal immunofluorescence and flow cytometry); type: cell-based, human; details: for specific binding (flow cytometry): 25 μM MSLN-pep
Experimental: Mesothelin-specific siRNA (M-siRNA) and negative control siRNA (C-siRNA) were purchased from Bioneer and transfected with Lipofectamine RNAiMAX transfection reagent (Invitrogen) into AsPC-1, a pancreatic cancer cell line. After 24 hours of transfection, the media were replaced with a medium containing serum, followed by culture for an additional 24 hours.
After AsPC-1 cells were cultured for 24 hours, for suppression of mesothelin expression, transfection followed with C-siRNA, a non-specific siRNA, as well as M-siRNA, a mesothelin-specific siRNA. To detect the silencing of the mesothelin gene, the group was divided into one without treatment of siRNA, one with treatment of 100 nM C-siRNA, and one with treatment of 100 nM and 200 nM M-siRNA. Mesothelin antibody and MSLN-pep were then treated by 10 μM and 25 μM, respectively. Further, the results were identified by means of confocal microscopy via immunofluorescence analysis (FIG. 6A). […] Flow cytometry was performed to determine the expression level of mesothelin when siRNA was not treated to AsPC-1 cells and the expression level of mesothelin after C-siRNA and M-siRNA were treated, of which values were expressed in % binding with the mesothelin antibody and the mean fluorescence intensity (MFI). […] As a result of performing flow cytometry to determine the difference between the binding of 25 μM MSLN-pep when siRNA was not treated to AsPC-1 cells expressing mesothelin and the binding of 25 μM MSLN-pep after treating with C-siRNA and M-siRNA, when treated with no siRNA or treated with 100 nM C-siRNA, the specific binding of 25 μM MSLN-pep was approximately 78%, and when treated with 100 nM and 200 nM M-siRNA, it was approximately 15%. This series of results reveal the degree of mesothelin expression and the reduction of mesothelin expression when M-siRNA is treated. […] In brief, it was determined that MSLN-pep specifically binds to cells expressing mesothelin.

[3] = test system: pancreatic cancer cell lines PANC-1 and AsPC-1; assay: internalization of FITC-labeled peptides (confocal microscopy); type: cell-based, human; details: 25 μM and 50 μM MSLN-pep, 50 uM NSSSVDK; 1 and 2 hours
Experimental: To observe the intracellular distribution of the internalized FITC-labeled peptide MSLN-pep, pancreatic cancer cell lines AsPC-1 and PANC-1 cells (2.5×10^5 cell counts) were dispensed on a 4-well chamber slide. After complete adhesion, the cell culture medium was replaced with a fresh medium containing FITC-labeled peptides (25 μM, 50 μM), […], and the cells were washed with PBS 3 times for 3˜5 minutes, followed by fixation (4% paraformaldehyde; PFA) for 5 minutes. Thereafter, washing with PBS was performed. After staining the nucleus with DAPI and mounting on a glass slide with a fading reagent, internalization of FITC-labeled MSLN-pep was observed under confocal microscopy.

mesothelin [4] = molecular target: T1, mesothelin; assay: phage-binding ELISA and phage immunofluorescence staining of phage clones; design: GFP; host or cells: HEK293T; details: phage clone, compared to other phage clones
Source text: A phage peptide library based on the T7 415-1b phage vector, represented by CX7C (C, cysteine; X, any amino acid residue) was designed according to the manufacturer's instructions (Novagen, Madison, WI). The phage library has approximately 1×10^9 plaque-forming unit (pfu). In other words, HEK-293T cells transfected with a mesothelin-expressing plasmid pCMV6-AC-GFP vector were dispensed in a 35 mm dish and cultured to meet a confluency of 60-70%. For transient transfection of HEK-293T cells, the cells were treated with Lipofectamine 3000 (Invitrogen) and cultured for 48 hours. First, phage libraries with 1×109 plaque-forming unit (pfu) were cultured in untransfected HEK-293T cells at 4° C. for 30 minutes. […] The eluate was used for titration, the remaining eluted phage clones were lysed in 10 ml of LB medium for amplification for the next cycle, and the process was repeated 5 times. […]
To screen peptides specifically binding to mesothelin, the present inventors first prepared HEK-293T cells transiently transfected with a mesothelin-GFP plasmid. […] As a result of observing mesothelin-GFP expression via immunofluorescence analysis, transfection was detected at each time point compared to untransfected HEK-293T cells (FIG. 2A). […]

CC[C@H](C)[C@@H]1NC(=O)[C@H]([C@@H](C)O)NC(=O)[C@@H](N)CSSC[C@@H](C(=O)O)NC(=O)[C@H]([C@@H](C)O)NC(=O)[C@H](CC(C)C)NC(=O)[C@H](CO)NC(=O)[C@H](Cc2c[nH]c3ccccc23)NC(=O)[C@H](CC(C)C)NC1=O [MSLN-pep]
specific binding (immunofluorescence) (mesothelin [1]): bound only to the mesothelin-expressing portion | specific binding (flow cytometry) ([2]; 100 nM and 200 nM M-siRNA): approximately 15% | specific binding (flow cytometry) ([2]; no siRNA or 100 nM C-siRNA): approximately 78% | specific binding to mesothelin (confocal immunofluorescence) ([2]; 25 μM compared to 10 μM): higher specific binding to mesothelin | specific binding (confocal immunofluorescence) ([2]; M-siRNA 100 nM and 200 nM): decreased with the decrease of mesothelin expression | binding and internalization into cells [3]: internalization into cells occurs in proportion to the increase in the concentration | binding to mesothelin through phage ELISA and phage immunofluorescence staining (mesothelin [4]): binds to mesothelin in high degree
